Paper PMC5555199, “Mechanism of pathogen recognition by human dectin-2” (The Journal of Biological Chemistry, 2017)

Target: T1, untagged form of the CRD (human dectin-2) (Homo sapiens, UniProt Q6EIG7)
T1 construct: gene CLEC6A; extended C-type carbohydrate-recognition domain starting at Leu-64, preceded by Met-Ala; untagged; one monomer in the asymmetric unit
T1 sequence (Q6EIG7 64-209): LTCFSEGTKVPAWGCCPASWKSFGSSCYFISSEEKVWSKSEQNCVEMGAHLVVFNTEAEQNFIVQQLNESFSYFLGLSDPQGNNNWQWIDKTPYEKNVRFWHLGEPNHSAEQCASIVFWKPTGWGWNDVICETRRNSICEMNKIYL
Assay: X-ray crystallography, […] Å
Assay type: binding
Conditions: pH 8.0, Ca2+; primary Ca2+ site plus adjacent secondary site; D1 and D2 branches at 50% occupancy each

CC(=O)N[C@H]1[C@H](O[C@H]2[C@H](O)[C@@H](NC(C)=O)C(O)O[C@@H]2CO)O[C@H](CO)[C@@H](O[C@@H]2O[C@H](CO[C@H]3O[C@H](CO[C@H]4O[C@H](CO)[C@@H](O)[C@H](O)[C@@H]4O[C@H]4O[C@H](CO)[C@@H](O)[C@H](O)[C@@H]4O)[C@@H](O)[C@H](O[C@H]4O[C@H](CO)[C@@H](O)[C@H](O)[C@@H]4O[C@H]4O[C@H](CO)[C@@H](O)[C@H](O)[C@@H]4O)[C@@H]3O)[C@@H](O)[C@H](O[C@H]3O[C@H](CO)[C@@H](O)[C@H](O)[C@@H]3O[C@H]3O[C@H](CO)[C@@H](O)[C@H](O)[C@@H]3O[C@H]3O[C@H](CO)[C@@H](O)[C@H](O)[C@@H]3O)[C@@H]2O)[C@@H]1O (stereo partly shown) [Man9GlcNAc2]
X-ray crystallography, 2.4 Å: crystals obtained with the untagged form of the CRD in combination with Man9GlcNAc2 oligosaccharide
